pIC50: −log10 of the molar value. ≈ marks a conversion by molar mass, not a printed value. Where two headings read alike, the source gives them in different places.
Tests used:
[1] = rats; cited from earlier work
P. falciparum TM91C235 = assay: In vitro antimalarial activity against P. falciparum TM91C235; type: cell-based, Plasmodium falciparum
Method: (§1) The in vitro activities of AAQMs against P. falciparum strains W2, D6, TM91C235 and TM90C2A were evaluated using the method of Desjardins et al. as modified by Milhous et al. W2 is chloroquine resistant and mefloquine sensitive, D6 is chloroquine sensitive but naturally less susceptible to mefloquine, TM91C235 is resistant to mefloquine, chloroquine and pyrimethamine as is TM90C2A, however this latter parasite is a two pfmdr1 copy strain. We routinely run mefloquine in this screen as a control to ensure assay validity.

[2] = humans; cited from earlier work
[3] = test system: primary rat forebrain neurons; assay: Neurocytotoxicity assay (MTT)
Method: The neurocytotoxicity assay of AAQMs was conducted as per Dow et al.; The antimalarial potential of 4-quinolinecarbinolamines may be limited due to neurotoxicity and cross-resistance in mefloquine-resistant Plasmodium falciparum strains; Chemother. (48) 2624-2632 (2004) and is incorporated herein, by reference. This assay utilizes primary rat forebrain neurons and is a multi-endpoint screen. […] The AAQMs outlined in Table 1 were screened at 10, 100 and 1000 μM in triplicate, and the reduction in viability observed was determined using the 3-(4,5-dimethylthiazol-2-yl)-2,5-diphenyltetrazolium bromide (MTT) assay as per Dow et al., discussed above. Approximate IC50 values were calculated on the basis of the level of inhibition observed at each concentration. Full dose response assays were run for mefloquine and WR069878 with two fold dilutions (n=6 wells per dilution) and 11 dilutions for each drug. IC50s were calculated using Prism. Each time the assay is conducted, 20 μM mefloquine is included, as a control. […] Assays are re-run if the loss of viability induced by mefloquine is <40% or >60%. Neuroprotection experiments with 6,7-dinitroquinoxaline-2,3-dione (DNQX) and magnesium were performed as per Dow et al.; Transcriptional profiling of mefloquine-induced disruption of calcium homeostasis in neurons in vitro; Genomics (86)539-550 (2005), which is incorporated by reference, herein. Neurons were exposed to DNQX (100 μM) or magnesium (12 mM) for 5 min, followed by mefloquine (25 μM) or WR069878 (250 μM) for 20 min after which reduction in cell viability was determined. […] DNQX is an inhibitor of non-N-methyl-D-aspartate (NMDA) receptors, whilst magnesium inhibits the functioning of the inositol 1,4,5-trisphosphate (IP3)-mediated calcium signaling pathway at several points. The effects of mefloquine and WR069878 on neuronal calcium homeostasis were assessed utilizing confocal microscopy as per Dow et al, as discussed in Antimicrob Agents Chemother. (48)2624-2632 (2004), cited above, and incorporated by reference, herein. Briefly neurons were loaded with calcium sensitive dye Fluo 3-A for 1 h and were washed prior to image experiments. Neurons were ‘spiked’ with 100 μM mefloquine or WR069878. Subsequent changes in neuronal calcium homeostasis were recorded as fluctuations in the emitted fluorescence of fluo-3-complexed calcium at 530 nm (excitation was 488 nm). Sequential image scans of fields containing 5-25 neurons were used to construct temporal profiles. Scans were made at 10 s intervals. Fluorescence levels for each neuron were normalized 12 to time zero values. Data were then pooled from three and five independent experiments for mefloquine and WR069878 respectively.

[4] = Phototoxicity in mice (historical experiments); settings: WR030090: 25 or 50 mg/kg orally, WRAIR archival data
[5] = test system: primary rat forebrain neurons; assay: Neuroprotection experiments with DNQX and magnesium; settings: DNQX 100 μM or magnesium 12 mM; mefloquine 25 μM, WR069878 250 μM; FIG. 2(c)
Method: (§2) The neurocytotoxicity assay of AAQMs was conducted as per Dow et al.; The antimalarial potential of 4-quinolinecarbinolamines may be limited due to neurotoxicity and cross-resistance in mefloquine-resistant Plasmodium falciparum strains; Chemother. (48) 2624-2632 (2004) and is incorporated herein, by reference. This assay utilizes primary rat forebrain neurons and is a multi-endpoint screen. […] The AAQMs outlined in Table 1 were screened at 10, 100 and 1000 μM in triplicate, and the reduction in viability observed was determined using the 3-(4,5-dimethylthiazol-2-yl)-2,5-diphenyltetrazolium bromide (MTT) assay as per Dow et al., discussed above. Approximate IC50 values were calculated on the basis of the level of inhibition observed at each concentration. […] IC50s were calculated using Prism. […] Neurons were exposed to DNQX (100 μM) or magnesium (12 mM) for 5 min, followed by mefloquine (25 μM) or WR069878 (250 μM) for 20 min after which reduction in cell viability was determined. […] The effects of mefloquine and WR069878 on neuronal calcium homeostasis were assessed utilizing confocal microscopy as per Dow et al, as discussed in Antimicrob Agents Chemother. […] Subsequent changes in neuronal calcium homeostasis were recorded as fluctuations in the emitted fluorescence of fluo-3-complexed calcium at 530 nm (excitation was 488 nm). […]

[6] = target: human multiple drug resistance transporter (MDR1), P-glycoprotein (Homo sapiens, UniProt P08183); settings: not told; cited from earlier work
[7] = single mefloquine treatment dose; cited from earlier work
[8] = Method: The AAQMs indicated in Table 1 (10 μM) were added to a mixture containing an NADPH-regenerating buffer (1.25 mM β-NADP+, 3.3 mM glucose-6-phosphate, and 3.3 mM MgCl2) and 0.5 mg/ml pooled human liver microsomes to a final volume of 125 μl. The mixtures were incubated for 5 minutes at 37° C. and the reactions were initiated by adding 25 μl glucose-6-phosphate dehydrogenase to a final concentration of 1 unit/ml. The reactions were maintained at 37° C. until they were terminated by the addition of an equal volume of 100% ice cold acetonitrile at 0, 10, 30, 60, and 120 minutes. Samples were centrifuged to pellet the proteins and the supernatant was analyzed by LC-MS/MS in duplicate using fast LC gradient or isocratic methods. AAQM concentrations were quantified with external calibration, using plots of response v. amount. Chromatograms were analyzed using the mass spectrometry software Xcalibur® QuanBrowser (for ThermoFinnigan® instruments) or MassLynx® (for Waters® instruments). Concentrations of AAQMs remaining at each time point were calculated using the unknown peak areas and corresponding calibration curves. In order to calculate the half-life, a first-order rate of decay was assumed. […] All reagents were purchased from Sigma except for the microsomes, which were obtained from BD Gentest®. For metabolite identification, samples were prepared as described above with human liver microsomes. Additional samples were prepared with for each AAQM using mouse, rat, and rhesus monkey liver microsomes. Samples were separated using an LC gradient method and analyzed by full scan LC-MS and LC-MS/MS. […] These MS/MS data were also used to do preliminary structural elucidation. […] The relative percentage of formation of each metabolite was determined in a semi-quantitative manner since standards of each metabolite were not available. Peak areas of each detected AAQM metabolite and the internal standard were determined, and their ratios were calculated as metabolite area/internal standard area. The percent formation of each metabolite was determined as the area ratio divided by the sum of all the metabolite area ratios.
P. falciparum D6 = assay: In vitro antimalarial activity against P. falciparum D6; type: cell-based, Plasmodium falciparum
Method: as §1
The combined effects of azithromycin (as represented by compound 196 on the horizontal axes of FIG. 4 through 6) and WR074086 (as represented by compound 14885 on vertical axes of FIGS. 4 through 6) against three strains of P. falciparum were investigated using isobologram analysis. First, the IC50s of each compound were determined as described above.

[9] = test system: neuronal calcium homeostasis; assay: Neuronal calcium homeostasis, confocal microscopy (Fluo-3); settings: 100 μM, FIG. 2(b)
Method: as §2

P. falciparum TM90C2A = assay: In vitro antimalarial activity against P. falciparum TM90C2A; type: cell-based, Plasmodium falciparum
Method: as §1

P. falciparum W2 = assay: In vitro antimalarial activity against P. falciparum W2; type: cell-based, Plasmodium falciparum
Method: as §1

[10] = test system: Balb/c 3T3 mouse fibroblast cells; assay: 3T3 neutral red uptake (NRU) phototoxicity test; type: cell-based; settings: UVA 5 J/cm2; potential to be phototoxic if PIF > 5.0
Excerpt: A pharmacophore for phototoxicity was developed to be used as an in silico screening tool to determine the minimum phototoxic concentration for a number of AAQMS (WR069878 and those indicated in Table 5). Minimum phototoxic concentration in a yeast assay for a number of AAQMS, as per Ison et al.; Phototoxicity of Quinoline methanols and other drugs in mice and yeast; J. Invest. Dermatol. (52)193-198 (1969) were used to generate a three-dimensional pharmacophore model using the HypoGen algorithm of the […]® (Accelrys software Inc.) methodology as per Bhattacharjee et al.; A 3D QSAR pharmacophore model and quantum chemical structure—activity analysis of chloroquine(CQ)-resistance reversal; J. Chem Inf. Comput Sci. (42) 1212-1220 (2002), and Dow et al.; as discussed in Antimicrob Agents Chemother. (48)2624-2632 (2004), cited above, both Bhattacharjee et al. and Dow et al, incorporated herein, by reference. The structures of clinically used quinoline methanols were mapped onto the pharmacophores and estimated values for minimum phototoxic concentration were generated. The 3T3 neutral red uptake (NRU) phototoxicity test, conducted by MB Research Laboratories (Spinnerstown, Pa.), was used to identify quinoline methanols (WR069878 and those in Table 5) that have the potential to exert in vivo phototoxicity after systemic application. Briefly, the central 60 wells of two 96-well plates per AAQM were seeded with Balb/c 3T3 mouse fibroblast cells and maintained in culture for 24 hrs. These plates were then pre-incubated with a range of eight different concentrations of test compound (six wells per concentration) for one hour. Next, one plate was treated with a UVA dose of 5 J/cm2 by irradiating for 50 min at 1.7 mW/cm2, whereas the other plate remained non-treated and in the dark. Next, the treatment medium was replaced with culture medium and cell viability was determined after 24 hrs by measuring neutral red uptake for 3 hrs. Finally, the 3T3 NRU Phototox Prediction Software (version 2.0, ZEBET) was used to calculate EC50 values and Photo-Irritant Factors (PIF) for each compound. […]

[11] = by 'injection'; Ison and Davis, 1969; cited from earlier work
yeast = settings: Ison and Davis, 1969; cited from earlier work

## OC(c1cc(C(F)(F)F)nc2c(C(F)(F)F)cccc12)C1CCCCN1 (stereo not drawn) [Mefloquine, reference compound]
[1]
  Maximum concentration in CNS: 113 µM
P. falciparum TM91C235
  Activity against P. falciparum TM91C235 (IC50 in ng/ml): 15 ng/mL
P. falciparum TM91C235; Table 4, read-out: Median IC50 against P. falciparum TM91C235
  pIC50: 7.46
P. falciparum TM91C235; control, last 15 assays
  Mean IC50 +/- SD against P. falciparum TM91C235: 0.0157 ± 0.0027 µg/mL
P. falciparum TM91C235; text b26
  IC90 against TM91C235: 0.089 µg/mL (≈ 0.235 µM)
[2]
  Maximum concentration in CNS: 52 µM
[3]; read-out: Median IC50 against rat neurons, Table 4
  pIC50: 4.70
[3]; read-out: Neurotoxicity IC50, full dose response, FIG. 2(a)
  pIC50: 4.57
[3]; read-out: Neurotoxicity ranking (IC50 in μM), approximate IC50 from screen at 10, 100 and 1000 μM, MTT
  IC50: 20 µM
[4]
  Phototoxicity in mice: Not phototoxic at tolerated doses
[5]
  Neurotoxicity blocked by DNQX and supra-physiological magnesium: is blocked
[6]
  PgP interaction: PgP substrate and inhibitor
[7]
  Peak plasma concentrations: 800 to 8000 ng/mL
[8]
  Half-life, human liver microsomes: > 2 h
P. falciparum D6
  IC90 against D6: 0.02 µg/mL (≈ 0.0529 µM)
[9]
  Effect on intracellular calcium (Fluo-3 fluorescence): increases intracellular calcium concentrations
P. falciparum TM90C2A
  IC90 against TM90C2A: 0.101 µg/mL (≈ 0.267 µM)
P. falciparum W2
  IC90 against W2: 0.0039 µg/mL (≈ 0.0103 µM)

## OC(c1cc(-c2ccccc2)nc2c(Cl)cc(Cl)cc12)C1CCCCN1 (stereo not drawn) [WR007930]
[10]
  Photo Irritant Factor (PIF): 29.0
[11]
  Minimum phototoxic dose in mice: Minimum phototoxic dose is 7 mg/kg
yeast
  Yeast minimum phototoxic concentration: 31 mg/ml^c
